melting point | SMILES
234 °C | O=S(=O)(c1cccc(-c2cc(-c3nc(-c4ccc(C(F)(F)F)cc4)cc(C(F)(F)F)n3)ccn2)c1)N1CCC(O)C1 (racemic) [Example 407, (RS)-1-(3-{4-[4-Trifluoromethyl-6-(4-trifluoromethyl-phenyl)-pyrimidin-2-yl]-pyridin-2-yl}-benzenesulfonyl)-pyrrolidin-3-ol]
120.5 °C | FC(F)(F)c1ccc(-c2cc(C(F)(F)F)nc(-n3cccc3)n2)cc1 [Example 4, 2-Pyrrol-1-yl-4-trifluoromethyl-6-(4-trifluoromethyl-phenyl)-pyrimidine]
128.5 °C | FC(F)(F)c1cc(-c2ccc(Cl)cc2)nc(-n2cccc2)n1 [Example 6, 4-(4-Chloro-phenyl)-2-pyrrol-1-yl-6-trifluoromethyl-pyrimidine]
228 °C | FC(F)(F)c1cc(-c2ccc(Cl)cc2)nc(-n2cnc(-c3cccnc3)c2)n1 [Example 7, 4-(4-Chloro-phenyl)-2-(4-pyridin-3-yl-imidazol-1-yl)-6-trifluoromethyl-pyrimidine]
211 °C | Nc1ccc(-c2noc(-c3nc(-c4ccc(Cl)cc4)cc(C(F)(F)F)n3)n2)cn1 [Example 9, 5-{5-[4-(4-Chloro-phenyl)-6-trifluoromethyl-pyrimidin-2-yl]-[1,2,4]oxadiazol-3-yl}-pyridin-2-ylamine]
223.5 °C | Nc1cc(-c2noc(-c3nc(-c4ccc(C(F)(F)F)cc4)cc(C(F)(F)F)n3)n2)ccn1 [Example 12, 4-{5-[4-Trifluoromethyl-6-(4-trifluoromethyl-phenyl)-pyrimidin-2-yl]-[1,2,4]oxadiazol-3-yl}-pyridin-2-ylamine]
286 °C | Nc1ccc(-c2cn(-c3nc(-c4ccc(C(F)(F)F)cc4)cc(C(F)(F)F)n3)cn2)cn1 [Example 13, 5-{1-[4-Trifluoromethyl-6-(4-trifluoromethyl-phenyl)-pyrimidin-2-yl]-1H-imidazol-4-yl}-pyridin-2-ylamine]
254 °C | Nc1ccc(-c2cn(-c3nc(-c4ccc(Cl)cc4)cc(C(F)(F)F)n3)cn2)cn1 [Example 14, 5-{1-[4-(4-Chloro-phenyl)-6-trifluoromethyl-pyrimidin-2-yl]-1H-imidazol-4-yl}-pyridin-2-ylamine]
302 °C | NS(=O)(=O)c1ccc(-c2noc(-c3nc(-c4ccc(C(F)(F)F)cc4)cc(C(F)(F)F)n3)n2)cc1 [Example 15, 4-{5-[4-Trifluoromethyl-6-(4-trifluoromethyl-phenyl)-pyrimidin-2-yl]-[1,2,4]oxadiazol-3-yl}-benzenesulfonamide]
204 °C | NS(=O)(=O)c1cccc(-c2noc(-c3nc(-c4ccc(C(F)(F)F)cc4)cc(C(F)(F)F)n3)n2)c1 [Example 16, 3-{5-[4-Trifluoromethyl-6-(4-trifluoromethyl-phenyl)-pyrimidin-2-yl]-[1,2,4]oxadiazol-3-yl}-benzenesulfonamide]
289.5 °C | NS(=O)(=O)c1ccc(-c2noc(-c3nc(-c4ccc(Cl)cc4)cc(C(F)(F)F)n3)n2)cc1 [Example 17, 4-{5-[4-(4-Chloro-phenyl)-6-trifluoromethyl-pyrimidin-2-yl]-[1,2,4}oxadiazol-3-yl]-benzenesulfonamide]
231 °C | NS(=O)(=O)c1cccc(-c2noc(-c3nc(-c4ccc(Cl)cc4)cc(C(F)(F)F)n3)n2)c1 [Example 18, 3-{5-[4-(4-Chloro-phenyl)-6-trifluoromethyl-pyrimidin-2-yl]-[1,2,4}oxadiazol-3-yl]-benzenesulfonamide]
206 °C | Nc1ccc(-c2cnn(-c3nc(-c4ccc(C(F)(F)F)cc4)cc(C(F)(F)F)n3)c2)cn1 [Example 19, 5-{1-[4-Trifluoromethyl-6-(4-trifluoromethyl-phenyl)-pyrimidin-2-yl]-1H-pyrazol-4-yl}-pyridin-2-ylamine]
